# Source: patent US20180252704A1, “SCREENING ASSAY TO IDENTIFY IDO1 AND/OR TDO MODULATORS” (Hoffmann-La Roche Inc., priority 2015, published 2018)
# Target: T1, human TDO (Homo sapiens, UniProt P48775)
# T1 construct: expressed in transfected cells; pTet-On plus pTRE2hyg-TDO2
# Experiment: cell based fluorescence assay of TDO activity in HepG2-Tet-on-TDO *25 cells (kynurenine detected with Sensor 1), compared with the prior art biochemical TDO assay
# Settings: IC50 cell-based assay versus biochemical assay
# Protocol: Assay Methods: Cells were seeded 10,000 cells/well in the Cell Plate and incubated at 37° C. and 5% CO2 in the 95% humidified cell culture incubator. Cells were then induced with 1 μg/ml of doxycyline for 24 h to achieve full expression of IDO or TDO. Non-induced cells were used as 100% inhibition control. After washing 3 times with 60 μl of 1× HBSS (37° C.), cells were equilibrated with 60 μl of 1× HBSS in the cell culture incubator for 30 min. After an-other 3 times washing with 60 μl of 1× HBSS (37° C.), cells were treated with compounds for 10 min before adding the substrate, L-tryptophan, to a final concentration of 80 μM. The assay was carried out for 4 h at 37° C. and 5% CO2 in the cell culture incubator. The reaction was then stopped by transfer of 30 μl/well of supernatant into the Assay Plate. 10 μl/well of 30% (w/v) TCA were added and followed by application of Sensor 1 to a final concentration of 10 μM. After brief centrifugation, the fluorescence was measured at Ex: 546, Em: 586nm with a Paradigm (Molecular devices) plate reader. [table]
# T1 sequence (P48775 whole entry): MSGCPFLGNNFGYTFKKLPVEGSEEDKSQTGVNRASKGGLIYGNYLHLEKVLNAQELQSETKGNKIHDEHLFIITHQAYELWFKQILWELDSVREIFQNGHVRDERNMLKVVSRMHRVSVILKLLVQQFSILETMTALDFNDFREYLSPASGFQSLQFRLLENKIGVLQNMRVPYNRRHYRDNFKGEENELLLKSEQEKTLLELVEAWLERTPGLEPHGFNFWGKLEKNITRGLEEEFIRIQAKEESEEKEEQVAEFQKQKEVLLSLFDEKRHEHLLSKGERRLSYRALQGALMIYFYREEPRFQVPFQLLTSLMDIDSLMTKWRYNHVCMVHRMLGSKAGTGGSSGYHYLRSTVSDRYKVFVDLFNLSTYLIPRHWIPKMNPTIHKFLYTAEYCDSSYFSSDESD
compound,measurement,value
"NS(=O)(=O)NCCNc1nonc1/C(=N/O)Nc1ccc(F)c(Br)c1 [INCB024360, (Z)-N-(3-bromo-4-fluorophenyl)-N′-hydroxy-4-(2-(sulfamoylamino)ethylamino)-1,2,5-oxadiazole-3-carboximidamide]",right-shift of IC50 from biochemical assay to cell-based assay in TDO enzyme activity,Over 100 fold
